Test system: hypoperfused vs normally perfused myocardium
Assay type: in vivo, canine
Method: To mimic severe ischemia, a canine model was used in which an inflatable variable vascular occluder was placed around the left anterior descending coronary artery (LAD) to allow occlusion and reperfusion. Imaging was performed on a 3 T clinical scanner 4 days after implantation of the occluder. The conventional saturation recovery pulse sequence for stress perfusion imaging was compared with a segmented inversion method. The purpose of the segmented inversion method was to leverage the steady-state properties of Compound ID No. 1. This segmented inversion recovery pulse sequence provides greater T1 weighting, higher spatial resolution, and greater myocardial tissue contrast. Additionally, since imaging is delayed, the entire heart can be imaged. After baseline MRI scanning, the balloon was inflated. Compound ID No. 1 was administered as an i.v. bolus at a dose of 7.5 μmol/kg one minute after coronary artery occlusion. The occlusion was maintained for an additional 4 minutes, after which blood flow was restored. Imaging was performed prior to occlusion release and at multiple time points following reperfusion (up to 120 minutes after reperfusion, see FIG. 20)
To assess relative perfusion, labeled microspheres were administered at 3 timepoints in the study. La-labeled microspheres were given before coronary artery occlusion, Au-labeled microspheres were given during coronary artery occlusion, and Lu-labeled microspheres were given after reperfusion. In addition, prior to euthanasia, the variable occluder was re-inflated and fluorescent microspheres were administered in combination with KCl to arrest the heart and visually delineate the area of hypo-perfusion. The animal was sacrificed at ca. 120 minutes post Compound ID No. 1 and the heart removed and sectioned according to American Heart Association guidelines (M D Cerqueira et al, Circulation, 2002, 105:539-42). At autopsy under ultraviolet light, the hypo-perfused myocardium was differentiated from normal myocardium due to the lack of fluorescence in the hypo-perfused tissue. Based on the fluorescence, a sample of the ischemic territory and a sample of the remote myocardium were taken for ex vivo analysis. These tissue samples were weighed, digested in nitric acid, and analyzed for the elements La, Au, Lu (the three microsphere injections) and gadolinium (Compound ID No. 1) using ICP-MS. Concentrations in the ischemic tissue were compared to that of the remote myocardium to assess regional flow and probe uptake.
Data were quantitatively evaluated at pre-contrast, at 6 minutes post-contrast, and 15 minutes post-contrast using signal-to-noise ratios (SNR) for normally perfused myocardium, SNR for hypo-perfused myocardium, and contrast to noise ratio (CNR) for normal-to-hypoperfused myocardium, Tables 8-10 and FIG. 23. […]

CC(C)C[C@H](NC(=O)[C@@H]1CSSC[C@H](NC(=O)[C@H](Cc2c[nH]cn2)NC(=O)[C@H](Cc2c[nH]c3ccccc23)NC(=O)[C@H](CCCCNC(=O)CC[C@H](C(=O)O)N2CCN(CC(=O)O)CCN(CC(=O)O)CCN(CC(=O)O)CC2)NC(=O)CNC(=O)CC[C@H](C(=O)O)N2CCN(CC(=O)O)CCN(CC(=O)O)CCN(CC(=O)O)CC2)C(=O)N[C@@H]([C@@H](C)O)C(=O)N[C@@H]([C@@H](C)O)C(=O)N[C@@H](CCCCNC(=O)CC[C@H](C(=O)O)N2CCN(CC(=O)O)CCN(CC(=O)O)CCN(CC(=O)O)CC2)C(=O)N[C@@H](Cc2ccccc2)C(=O)N2CCC[C@H]2C(=O)N[C@@H](Cc2c[nH]cn2)C(=O)N[C@@H](Cc2c[nH]cn2)C(=O)N[C@@H](Cc2ccc(O)cc2)C(=O)N1)C(=O)N[C@@H](Cc1ccc(O)cc1)C(=O)N[C@@H](Cc1ccc(-c2ccccc2)cc1)C(N)=O [Compound ID No. 1]
ΔCNR relative to EP-3600 study (7.5 μmol/kg vs 12.3 μmol/kg EP-3600 (pig, literature)): 3 to 4 fold
visualization of myocardial perfusion defect (MRI after 7.5 μmol/kg): readily visualized
change in SNR of hypoperfused myocardium vs pre-contrast (post injection): not significantly higher compared to the pre-contrast image
change in SNR of normally perfused myocardium vs pre-contrast (post injection, persists at 15 min, P<0.01): strong and significant increase in SNR

Reference: patent US20160375155A1, “Collagen Imaging Compositions” (Collagen Medical, LLC, priority 2015, published 2016)
